Literature values, collected in patent publication US20090048237A1 (priority 2007, published 2009).
Read-outs that look alike come from different tables or passages of the source.

Experiments:
[1] = not given; remark: listed apart in the source
[2] = human, in vivo
[3] = 0.2 mg/kg sublingual versus 0.2 mg/kg nasal, children
[4] = in vivo
[5] = 125 mcg and 250 mcg
[6] = 200 mcg sublingual
[7] = children
[8] = sublingual Halcion tablets

| SMILES | children with satisfactory sedation at 15 min after administration (0.25 mg/kg under the tongue) [%] | children with satisfactory sedation at 15 min after administration (0.5 mg/kg under the tongue) [%] | children with satisfactory sedation at 15 min after administration (0.75 mg/kg under the tongue) [%] | patients with complete drug dissolution within 10 min ([1]; 7.5 mg sublingual tablet) [%] | sedation scores ([1]; 7.5 mg sublingual versus oral, 30 and 60 min after administration) | children who had not previously cried that cried on administration [2] [%] | patients who experienced nasal irritation [2] | midazolam level 30 min after premedication [3] | tablet dissolution time [4] [s] | sedation and psychomotor performance, elderly versus young persons at the same dose [5] | depth of sedation versus 10 mg oral diazepam [6] | time after administration at which sedation developed ([6]; 61-70 year old patients) [min] | average sublingual tablet dissolution [7] [min] | tablet dissolution after dosing [8] [min] |
| --- | --- | --- | --- | --- | --- | --- | --- | --- | --- | --- | --- | --- | --- | --- |
| Cc1ncc2n1-c1ccc(Cl)cc1C(c1ccccc1F)=NC2 [Midazolam, 8-chloro-6-(2-fluorophenyl)-1-methyl-4H-imidazo[1,5-a][1,4]benzodiazepine] | 28 | 52 | 64 | 72 | higher than in the oral group | 71 | 20 | statistically significantly higher than in the nasal group | – | – | – | – | – | – |
| Cc1nnc2n1-c1ccc(Cl)cc1C(c1ccccc1Cl)=NC2 [Triazolam, 8-chloro-6-(o-chlorophenyl)-1-methyl-4H-s-triazolo-[4,3-alpha][1,4]benzodiazepine] | – | – | – | – | – | – | – | – | ≤ 90 | greater degree of sedation and greater impairment of psychomotor performance | deeper sedation | 60 to 90 | 4 | 2 to 3 |
